From patent publication US8389508B2 (Glaxo Group Limited, priority 2010, dated 2013)
Structures can show the parent of a compound that is named as a salt.

What was measured:
[1] = target: T1, human Endothelial Differentiation G-protein Coupled Receptor 3 (EDG3), S1P3 receptor (Homo sapiens, UniProt Q99500); assay: S1P3 Assay (GeneBLAzer EDG3-Ga15-NFAT-bla HEK 293T beta-lactamase reporter, agonist dose response); type: cell-based; conditions: EDG3-Ga15-NFAT-bla HEK 293T cells, blue/green emission ratio, 10 point dose response, free base or salt form; read-out: pEC50 (S1P3 assay) (converted)
T1 construct: expressed in transfected cells; host or cells: GeneBLAzer EDG3-Ga15-NFAT-bla HEK 293T
Summary of the method: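 HEK 293T cells stably expressing human EDG3 with Ga15 and NFAT-beta-lactamase reporter, ~10,000 cells/well, exposed overnight at 37 °C to 10-point compound doses in charcoal-stripped serum medium. CCF4-AM substrate loaded 2 h at room temperature; 460/530 nm ratio normalized to DMSO and agonist controls, sigmoidal fit; intrinsic activity relative to reference agonist maximum (100%).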

[2] = target: T2, human Endothelial Differentiation Gene 1 (EDG1), S1P1 receptor (Homo sapiens, UniProt P21453); assay: S1P1 Assay (Tango EDG1-bla/U2OS beta-lactamase reporter, agonist dose response); type: cell-based; conditions: EDG1-bla/U2OS cells, blue/green emission ratio, 10 point dose response, free base or salt form; read-out: pEC50 (S1P1 assay) (converted)
T2 construct: TEV protease site; Gal4-VP16 transcription factor; expressed in transfected cells; host or cells: EDG1-bla/U2OS (Tango GPCR-bla U2OS parental cell line)
Summary of the method: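 U2OS Tango cells with human EDG1 coupled to TEV site/Gal4-VP16 beta-lactamase reporter, serum-starved 24 h, then exposed overnight at 37 °C to 10-point compound dilutions. CCF4-AM FRET substrate 2 h RT; 460/530 nm ratio normalised to agonist and DMSO controls, sigmoidal fit; intrinsic activity relative to a reference compound set at 100%.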

[3] = clinical studies, Kappos et al 2006; cited from earlier work

T1 sequence (Q99500 whole entry): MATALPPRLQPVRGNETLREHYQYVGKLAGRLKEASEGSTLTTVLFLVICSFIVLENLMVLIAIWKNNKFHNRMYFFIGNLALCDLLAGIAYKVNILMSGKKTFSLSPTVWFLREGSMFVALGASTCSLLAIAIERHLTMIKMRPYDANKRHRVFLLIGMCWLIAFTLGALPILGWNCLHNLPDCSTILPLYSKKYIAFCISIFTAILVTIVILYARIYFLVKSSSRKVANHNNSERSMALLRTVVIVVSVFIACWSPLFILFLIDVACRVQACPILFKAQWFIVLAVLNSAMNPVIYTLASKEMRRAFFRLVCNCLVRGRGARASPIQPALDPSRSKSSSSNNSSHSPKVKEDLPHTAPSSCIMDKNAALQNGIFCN
T2 sequence (P21453 whole entry, the tested form may be a part): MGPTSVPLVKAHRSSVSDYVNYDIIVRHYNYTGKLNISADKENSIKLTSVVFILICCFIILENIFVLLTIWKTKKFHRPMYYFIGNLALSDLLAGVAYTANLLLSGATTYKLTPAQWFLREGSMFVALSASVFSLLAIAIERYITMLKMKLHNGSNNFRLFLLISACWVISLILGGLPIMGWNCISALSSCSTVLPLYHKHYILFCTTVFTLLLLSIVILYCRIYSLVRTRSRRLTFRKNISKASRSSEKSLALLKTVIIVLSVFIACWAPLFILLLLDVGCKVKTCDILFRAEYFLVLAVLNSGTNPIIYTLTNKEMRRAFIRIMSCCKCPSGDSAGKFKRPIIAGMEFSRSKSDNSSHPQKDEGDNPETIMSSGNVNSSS

| EC50 [1] | EC50 [2] | Compound | bradycardia on treatment [3] |
| --- | --- | --- | --- |
| > 10000 nM | < 1 nM | CCc1c(CN2CCC[C@H](C(=O)O)C2)cccc1-c1nnc(-c2ccc(CC(C)C)c(C#N)c2)s1 [Example 51] |  |
| > 10000 nM | < 100 nM | CCc1c(CCN2CCC[C@H]2C(=O)O)cccc1-c1nnc(-c2ccc(OC(C)C)c(Cl)c2)s1 [Example 52] |  |
| > 10000 nM | ≤ 10 nM | CCc1c(CCN2C[C@H](O)C[C@H]2C(=O)O)cccc1-c1nnc(-c2ccc(OC(C)C)c(Cl)c2)s1 [Example 55] |  |
| > 3160 nM | < 1 nM | CCc1c(CCN2CCCC(C(=O)O)C2)cccc1-c1nnc(-c2ccc(OC(C)C)c(Cl)c2)s1 (stereo not shown) [Example 56] |  |
| > 3160 nM | < 1 nM | CCc1c(CCN2CCC[C@H](C(=O)O)C2)cccc1-c1nnc(-c2ccc(OC(C)C)c(Cl)c2)s1 [Example 57] |  |
| > 3160 nM | ≤ 10 nM | Cc1c(CCN2CCC(C(=O)O)CC2)cccc1-c1nnc(-c2ccc(OC(C)C)c(Cl)c2)s1 [Example 58, 1-{2-[3-(5-{3-chloro-4-[(1-methylethyl)oxy]phenyl}-1,3,4-thiadiazol-2-yl)-2-methylphenyl]ethyl}-4-piperidinecarboxylic acid] |  |
| > 10000 nM | ≤ 10 nM | CCc1c(CCN2CCC[C@H]2C(=O)O)cccc1-c1nnc(-c2ccc(CC(C)C)c(C#N)c2)s1 [Example 59, 1-[2-(3-{5-[3-cyano-4-(2-methylpropyl)phenyl]-1,3,4-thiadiazol-2-yl}-2-ethylphenyl)ethyl]-L-proline] |  |
| > 3160 nM | < 1 nM | CCc1c(CCN2CCC(C(=O)O)C2)cccc1-c1nnc(-c2ccc(CC(C)C)c(C#N)c2)s1 (stereo not shown) [Example 61] |  |
| > 3160 nM | < 1 nM | CCc1c(CCN2CC[C@H](C(=O)O)C2)cccc1-c1nnc(-c2ccc(CC(C)C)c(C#N)c2)s1 [Example 62] |  |
| > 3160 nM | < 1 nM | CCc1c(CCN2CCCC(C(=O)O)C2)cccc1-c1nnc(-c2ccc(CC(C)C)c(C#N)c2)s1 (stereo not shown) [Example 63] |  |
| > 3160 nM | < 1 nM | CCc1c(CCN2CCC[C@H](C(=O)O)C2)cccc1-c1nnc(-c2ccc(CC(C)C)c(C#N)c2)s1 [Example 64] |  |
| > 3160 nM | ≤ 10 nM | CCc1c(CCN2CCC[C@H]2C(=O)O)cccc1-c1nsc(-c2ccc(OC(C)C)c(Cl)c2)n1 [Example 65, 1-{2-[3-(5-{3-chloro-4-[(1-methylethyl)oxy]phenyl}-1,2,4-thiadiazol-3-yl)-2-ethylphenyl]ethyl}-L-proline trifluoroacetate] |  |
| > 3160 nM | < 1 nM | CCc1c(CCN2C[C@H](O)C[C@H]2C(=O)O)cccc1-c1nsc(-c2ccc(OC(C)C)c(Cl)c2)n1 [Example 69] |  |
| > 3160 nM | < 1 nM | CCc1c(CCN2CCCC(C(=O)O)C2)cccc1-c1nsc(-c2ccc(OC(C)C)c(Cl)c2)n1 (stereo not shown) [Example 70] |  |
| > 3160 nM | ≤ 10 nM | CCc1c(CCN2CCC(CC(=O)O)CC2)cccc1-c1nsc(-c2ccc(OC(C)C)c(Cl)c2)n1 [Example 72] |  |
| > 3160 nM | ≤ 10 nM | COc1c(CCN2CCC(C(=O)O)CC2)cccc1-c1nsc(-c2ccc(OC(C)C)c(Cl)c2)n1 [Example 73, 1-{2-[3-(5-{3-chloro-4-[(1-methylethyl)oxy]phenyl}-1,2,4-thiadiazol-3-yl)-2-(methyloxy)phenyl]ethyl}-4-piperidinecarboxylic acid trifluoroacetate] |  |
| > 3160 nM | < 1 nM | Cc1c(CCN2CCC(C(=O)O)CC2)cccc1-c1nsc(-c2ccc(OC(C)C)c(Cl)c2)n1 [Example 74, 1-{2-[3-(5-{3-chloro-4-[(1-methylethyl)oxy]phenyl}-1,2,4-thiadiazol-3-yl)-2-methylphenyl]ethyl}-4-piperidinecarboxylic acid] |  |
| > 3160 nM | ≤ 10 nM | CCc1c(CCN2CCC(C(=O)O)CC2)cccc1-c1nsc(-c2cnc(OC(C)C)c(Cl)c2)n1 [Example 75, 1-{2-[3-(5-{5-chloro-6-[(1-methylethyl)oxy]-3-pyridinyl}-1,2,4-thiadiazol-3-yl)-2-ethylphenyl]ethyl}-4-piperidinecarboxylic acid trifluoroacetate] |  |
| > 3160 nM | ≤ 10 nM | CCc1c(CCN2CCC[C@H]2C(=O)O)cccc1-c1nsc(-c2ccc(CC(C)C)c(C#N)c2)n1 [Example 76, 1-[2-(3-{5-[3-cyano-4-(2-methylpropyl)phenyl]-1,2,4-thiadiazol-3-yl}-2-ethylphenyl)ethyl]-L-proline trifluoroacetate] |  |

| EC50 [1] | EC50 [2] | Compound | bradycardia on treatment [3] |
| --- | --- | --- | --- |
| > 3160 nM | ≤ 10 nM | CCc1c(CCN2CCC(C(=O)O)C2)cccc1-c1nsc(-c2ccc(CC(C)C)c(C#N)c2)n1 (stereo not shown) [Example 78] |  |
| > 3160 nM | ≤ 10 nM | CCc1c(CCN2CC[C@H](C(=O)O)C2)cccc1-c1nsc(-c2ccc(CC(C)C)c(C#N)c2)n1 [Example 79] |  |
| > 3160 nM | < 1 nM | CCc1c(CCN2CCC[C@H](C(=O)O)C2)cccc1-c1nsc(-c2ccc(CC(C)C)c(C#N)c2)n1 [Example 80] |  |
| > 10000 nM | ≤ 10 nM | CCc1c(CN2CCC(C(=O)O)C2)cccc1-c1cnc(-c2ccc(OC(C)C)c(C#N)c2)s1 (stereo not shown) [Example 83] |  |
| > 10000 nM | ≤ 10 nM | CCc1c(CN2CC[C@H](C(=O)O)C2)cccc1-c1cnc(-c2ccc(OC(C)C)c(C#N)c2)s1 [Example 84] |  |
| > 10000 nM | < 100 nM | CCc1c(CN2CCC(CC(=O)O)CC2)cccc1-c1cnc(-c2ccc(OC(C)C)c(C#N)c2)s1 [Example 87] |  |
| > 10000 nM | ≤ 10 nM | CCc1c(CCN2CCC[C@H]2C(=O)O)cccc1-c1cnc(-c2ccc(OC(C)C)c(C#N)c2)s1 [Example 88, 1-{2-[3-(2-{3-cyano-4-[(1-methylethyl)oxy]phenyl}-1,3-thiazol-5-yl)-2-ethylphenyl]ethyl}-L-proline trifluoroacetate] |  |
| > 10000 nM | ≤ 10 nM | CCc1c(CCN2C[C@H](O)C[C@H]2C(=O)O)cccc1-c1cnc(-c2ccc(OC(C)C)c(C#N)c2)s1 [Example 91] |  |
| > 3160 nM | < 1 nM | CCc1c(CCN2CCCC(C(=O)O)C2)cccc1-c1cnc(-c2ccc(OC(C)C)c(C#N)c2)s1 (stereo not shown) [Example 92] |  |
| > 3160 nM | < 1 nM | CCc1c(CCCN2CC(C(=O)O)C2)cccc1-c1cnc(-c2ccc(OC(C)C)c(C#N)c2)s1 [Example 93, 1-{3-[3-(2-{3-cyano-4-[(1-methylethyl)oxy]phenyl}-1,3-thiazol-5-yl)-2-ethylphenyl]propyl}-3-azetidinecarboxylic acid trifluoroacetate] |  |
| > 3160 nM | ≤ 10 nM | CCc1c(CCCN2CCC(C(=O)O)C2)cccc1-c1cnc(-c2ccc(OC(C)C)c(C#N)c2)s1 (stereo not shown) [Example 94] |  |
| > 3160 nM | ≤ 10 nM | CCc1c(-c2nsc(-c3ccc(OC(C)C)c(Cl)c3)n2)cccc1C1CCN(CC(=O)O)CC1 [Example 99, {4-[3-(5-{3-chloro-4-[(1-methylethyl)oxy]phenyl}-1,2,4-thiadiazol-3-yl)-2-ethylphenyl]-1-piperidinyl}acetic acid trifluoroacetate] |  |
| > 10000 nM | ≤ 10 nM | CCc1c(-c2nsc(-c3ccc(OC(C)C)c(Cl)c3)n2)cccc1C1CCN(CCC(=O)O)CC1 [Example 100, 3-{4-[3-(5-{3-chloro-4-[(1-methylethyl)oxy]phenyl}-1,2,4-thiadiazol-3-yl)-2-ethylphenyl]-1-piperidinyl}propanoic acid] |  |
| > 10000 nM | ≤ 10 nM | CCc1c(-c2nsc(-c3ccc(OC(C)C)c(Cl)c3)n2)cccc1C1CCN(CCCC(=O)O)CC1 [Example 102, 4-{4-[3-(5-{3-chloro-4-[(1-methylethyl)oxy]phenyl}-1,2,4-thiadiazol-3-yl)-2-ethylphenyl]-1-piperidinyl}butanoic acid trifluoroacetate] |  |
| > 10000 nM | ≤ 10 nM | CCc1c(-c2nsc(-c3ccc(CC(C)C)c(C#N)c3)n2)cccc1C1CN(CCCC(=O)O)C1 [Example 104, 4-[3-(3-{5-[3-cyano-4-(2-methylpropyl)phenyl]-1,2,4-thiadiazol-3-yl}-2-ethylphenyl)-1-azetidinyl]butanoic acid trifluoroacetate] |  |
| > 10000 nM | < 100 nM | CCc1c(CC2CCN(CC(=O)O)CC2)cccc1-c1nsc(-c2ccc(OC(C)C)c(Cl)c2)n1 [Example 105, (4-{[3-(5-{3-chloro-4-[(1-methylethyl)oxy]phenyl}-1,2,4-thiadiazol-3-yl)-2-ethylphenyl]methyl}-1-piperidinyl)acetic acid trifluoroacetate] |  |
| > 3160 nM | < 100 nM | CCc1c(CC2CCN(CCC(=O)O)CC2)cccc1-c1nsc(-c2ccc(OC(C)C)c(Cl)c2)n1 [Example 106, 3-(4-{[3-(5-{3-chloro-4-[(1-methylethyl)oxy]phenyl}-1,2,4-thiadiazol-3-yl)-2-ethylphenyl]methyl}-1-piperidinyl)propanoic acid trifluoroacetate] |  |
|  |  | CCCCCCCCc1ccc(CCC(N)(CO)CO)cc1 [FTY720] | bradycardia in the first 24 hours of treatment |
